{
  "source": "patent US20030187064A1",
  "about": "“Use” (priority 2001, published 2003)",
  "key": {"[1]": {"tested_on": "yeasts and moulds as well as catalase-positive bacteria", "conditions": "cited from earlier work"}, "[2]": {"assay": "Stability of APP in water", "conditions": "water at 24° C."}, "B. anthracis": {"tested_on": "B. anthracis", "assay_type": "cell-based, Bacillus anthracis", "conditions": "24 h at 30° C."}, "B. anthracis 3.046": {"tested_on": "B. anthracis 3.046", "assay_type": "cell-based, Bacillus anthracis", "conditions": "24 h at 30° C."}, "[3]": {"assay": "Preserving effect in toothpaste", "conditions": "2000 ppm; compared with sodium benzoate"}, "[4]": {"assay": "Irritation effect of skin cream on the skin", "conditions": "added to skin cream, 250 or 2000 ppm"}, "B. anthracis 204": {"tested_on": "B. anthracis 204", "assay_type": "cell-based, Bacillus anthracis", "conditions": "24 h at 30° C."}, "caries": {"tested_on": "caries", "assay": "Caries inhibition by toothpaste with APP", "conditions": "added to toothpaste, 2000 ppm"}, "[5]": {"assay": "Irritation effect of shampoo on the scalp", "conditions": "added to shampoo, 2000 ppm"}, "[6]": {"assay": "Preserving effect in shampoo", "conditions": "2000 ppm; compared with a normally used preservative"}, "[7]": {"conditions": "tests disclosed in the literature (Baute et al. 1993); cited from earlier work"}, "[8]": {"assay": "Preserving effect in skin cream (oil-in-water)", "conditions": "250 or 2000 ppm; compared with methyl paraben"}, "[9]": {"conditions": "cited from earlier work"}, "Bacillus anthracis": {"tested_on": "Bacillus anthracis", "assay_type": "cell-based"}, "bacteria": {"tested_on": "bacteria", "conditions": "cited from earlier work"}, "moulds": {"tested_on": "moulds", "conditions": "pH of 5.5; cited from earlier work"}, "[10]": {"tested_on": "Gram-positive bacteria, yeasts, and moulds", "conditions": "cited from earlier work"}, "[11]": {"tested_on": "aerobic, Gram-negative bacteria", "conditions": "cited from earlier work"}},
  "note": "Where “and” joins values, the source holds several entries; their conditions need not be identical. Equal entries are not always repeated.",
  "data": [
    {"molecule": "C/C=C/C=C/C(=O)O", "note": "[Sorbic Acid]", "values": [
      {"measurement": "Effective concentration", "setting": "[1]", "value": "500-3000 ppm"}
    ]},
    {"molecule": "O=C1C[C@@H](CO)OC=C1O", "note": "[APP, 1,5-Anhydro-4-deoxy-D-glycero-hex-1-en-3-ulose]", "values": [
      {"measurement": "Stability in water", "setting": "[2]; 2 weeks", "value": "stable"},
      {"measurement": "Stability in water", "setting": "[2]; after 2 months", "value": "completely disappears"},
      {"measurement": "APP level causing significant inhibition", "setting": "B. anthracis", "value": 2000, "unit": "ppm"},
      {"measurement": "APP level causing total inhibition", "setting": "B. anthracis", "value": "4000 ppm and >4000 ppm"},
      {"measurement": "APP level causing significant inhibition", "setting": "B. anthracis 3.046", "value": 2000, "unit": "ppm"},
      {"measurement": "APP level causing total inhibition", "setting": "B. anthracis 3.046", "value": 3000, "unit": "ppm"},
      {"measurement": "Preserving effect in toothpaste", "setting": "[3]", "value": "as good preservatives as the commonly used preservative"},
      {"measurement": "Irritation effect on the skin", "setting": "[4]", "value": "no irritation effect"},
      {"measurement": "APP level causing significant inhibition", "setting": "B. anthracis 204", "value": "4000 ppm and 2000 ppm"},
      {"measurement": "APP level causing total inhibition", "setting": "B. anthracis 204", "value": ">4000 ppm and 4000 ppm"},
      {"measurement": "Inhibition of caries", "setting": "caries", "value": "inhibited caries"},
      {"measurement": "Irritation effect on the scalp", "setting": "[5]", "value": "no irritation effect"},
      {"measurement": "Preserving effect in shampoo", "setting": "[6]", "value": "as good preservatives as the commonly used preservative"},
      {"measurement": "Function as an antibiotic", "setting": "[7]", "value": "did not function satisfactorily as an antibiotic"},
      {"measurement": "Preserving effect in skin cream", "setting": "[8]", "value": "as good preservatives as the commonly used preservative"},
      {"measurement": "Stability", "setting": "[9]; pH 1.5-5.5", "value": "stable"},
      {"measurement": "half-life", "setting": "[9]; pH 11-12.5", "value": 5, "unit": "h"},
      {"measurement": "Sensitivity in well diffusion test (zones of inhibition)", "setting": "Bacillus anthracis", "value": "sensitive"}
    ]},
    {"molecule": "Propionic Acid and Propionate", "values": [
      {"measurement": "Concentration necessary for inhibition of bacteria", "setting": "bacteria", "value": "> 16000", "unit": "ppm"},
      {"measurement": "Concentration inhibiting moulds", "setting": "moulds", "value": "125 to 12500", "unit": "ppm"}
    ]},
    {"molecule": "O=C1CO[C@H](CO)[C@@H](O)[C@@H]1O", "note": "[AF, 1,5-anhydro-D-fructose]", "values": [
      {"measurement": "Preserving effect in toothpaste", "setting": "[3]", "value": "as good preservatives as the commonly used preservative"},
      {"measurement": "Irritation effect on the skin", "setting": "[4]", "value": "no irritation effect"},
      {"measurement": "Irritation effect on the scalp", "setting": "[5]", "value": "no irritation effect"},
      {"measurement": "Preserving effect in shampoo", "setting": "[6]", "value": "as good preservatives as the commonly used preservative"},
      {"measurement": "Preserving effect in skin cream", "setting": "[8]", "value": "as good preservatives as the commonly used preservative"}
    ]},
    {"molecule": "O=S=O", "note": "[Sulphur Dioxide]", "values": [
      {"measurement": "Effective concentration", "setting": "[10]", "value": "800-2000 ppm"},
      {"measurement": "Effective concentration for inhibition", "setting": "[11]", "value": "250-500 ppm"}
    ]}
  ]
}
